Data from patent publication US8192962B2, “Processes for detecting toxic substances” (Daikin Industries, Ltd., priority 2001, dated 2012).

Tested on: Stress protein genes
Experiment: DNA chip mRNA expression in yeast, stress protein genes (Table 6)
Type: cell-based, Saccharomyces cerevisiae S288C
Method in brief: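 S. cerevisiae S288C grown at 25° C in YPD were exposed in log phase for two hours to one toxic chemical at a growth-inhibiting, non-lethal concentration; untreated cells served as control. Poly(A) mRNA was reverse-transcribed with Cy3/Cy5-dUTP and hybridized to a whole-genome yeast DNA chip at 65° C for over 12 hours; values are fluorescence ratios versus untreated.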

COc1cc(CNC(=O)CCCCC=CC(C)C)ccc1O [(12), 8-methyl-N-vanillyl-6-nonenamide]
The level of expressed mRNA in the presence of chemical substance/The level of expressed mRNA in the absence of chemical substance (yeast gene YAL005C): 1.2
The level of expressed mRNA in the presence of chemical substance/The level of expressed mRNA in the absence of chemical substance (yeast gene YAL015C): 1.0
The level of expressed mRNA in the presence of chemical substance/The level of expressed mRNA in the absence of chemical substance (yeast gene YBL075C): 1.1
The level of expressed mRNA in the presence of chemical substance/The level of expressed mRNA in the absence of chemical substance (yeast gene YBL093C): 1.1
The level of expressed mRNA in the presence of chemical substance/The level of expressed mRNA in the absence of chemical substance (yeast gene YBR044C): 0.8
The level of expressed mRNA in the presence of chemical substance/The level of expressed mRNA in the absence of chemical substance (yeast gene YBR054W): 0.7
The level of expressed mRNA in the presence of chemical substance/The level of expressed mRNA in the absence of chemical substance (yeast gene YBR067C): 1.0
The level of expressed mRNA in the presence of chemical substance/The level of expressed mRNA in the absence of chemical substance (yeast gene YBR072W): 16.3
The level of expressed mRNA in the presence of chemical substance/The level of expressed mRNA in the absence of chemical substance (yeast gene YBR126C): 1.3
The level of expressed mRNA in the presence of chemical substance/The level of expressed mRNA in the absence of chemical substance (yeast gene YBR169C): 1.7
The level of expressed mRNA in the presence of chemical substance/The level of expressed mRNA in the absence of chemical substance (yeast gene YCL035C): 1.5
The level of expressed mRNA in the presence of chemical substance/The level of expressed mRNA in the absence of chemical substance (yeast gene YCR021C): 0.5
The level of expressed mRNA in the presence of chemical substance/The level of expressed mRNA in the absence of chemical substance (yeast gene YCR060W): 1.7
The level of expressed mRNA in the presence of chemical substance/The level of expressed mRNA in the absence of chemical substance (yeast gene YCR083W): 1.1
The level of expressed mRNA in the presence of chemical substance/The level of expressed mRNA in the absence of chemical substance (yeast gene YDL022W): 1.2
The level of expressed mRNA in the presence of chemical substance/The level of expressed mRNA in the absence of chemical substance (yeast gene YDL025C): 0.9
The level of expressed mRNA in the presence of chemical substance/The level of expressed mRNA in the absence of chemical substance (yeast gene YDR033W): 1.0
The level of expressed mRNA in the presence of chemical substance/The level of expressed mRNA in the absence of chemical substance (yeast gene YDR077W): 0.8
The level of expressed mRNA in the presence of chemical substance/The level of expressed mRNA in the absence of chemical substance (yeast gene YDR098C): 1.3
The level of expressed mRNA in the presence of chemical substance/The level of expressed mRNA in the absence of chemical substance (yeast gene YDR155C): 1.4
The level of expressed mRNA in the presence of chemical substance/The level of expressed mRNA in the absence of chemical substance (yeast gene YDR258C): 1.8
The level of expressed mRNA in the presence of chemical substance/The level of expressed mRNA in the absence of chemical substance (yeast gene YDR293C): 0.9
The level of expressed mRNA in the presence of chemical substance/The level of expressed mRNA in the absence of chemical substance (yeast gene YDR436W): 0.9
The level of expressed mRNA in the presence of chemical substance/The level of expressed mRNA in the absence of chemical substance (yeast gene YDR513W): 0.9
The level of expressed mRNA in the presence of chemical substance/The level of expressed mRNA in the absence of chemical substance (yeast gene YDR519W): 1.7
The level of expressed mRNA in the presence of chemical substance/The level of expressed mRNA in the absence of chemical substance (yeast gene YEL030W): 0.9
The level of expressed mRNA in the presence of chemical substance/The level of expressed mRNA in the absence of chemical substance (yeast gene YEL039C): 0.6
The level of expressed mRNA in the presence of chemical substance/The level of expressed mRNA in the absence of chemical substance (yeast gene YER042W): 1.1
The level of expressed mRNA in the presence of chemical substance/The level of expressed mRNA in the absence of chemical substance (yeast gene YER057C): 1.5
The level of expressed mRNA in the presence of chemical substance/The level of expressed mRNA in the absence of chemical substance (yeast gene YER103W): 1.9
The level of expressed mRNA in the presence of chemical substance/The level of expressed mRNA in the absence of chemical substance (yeast gene YER125W): 0.7
The level of expressed mRNA in the presence of chemical substance/The level of expressed mRNA in the absence of chemical substance (yeast gene YFL014W): 4.3
The level of expressed mRNA in the presence of chemical substance/The level of expressed mRNA in the absence of chemical substance (yeast gene YFL016C): 1.0
The level of expressed mRNA in the presence of chemical substance/The level of expressed mRNA in the absence of chemical substance (yeast gene YFL020C): 1.3
The level of expressed mRNA in the presence of chemical substance/The level of expressed mRNA in the absence of chemical substance (yeast gene YFR052W): 1.8
The level of expressed mRNA in the presence of chemical substance/The level of expressed mRNA in the absence of chemical substance (yeast gene YGL073W): 0.8
The level of expressed mRNA in the presence of chemical substance/The level of expressed mRNA in the absence of chemical substance (yeast gene YGL115W): 0.9
The level of expressed mRNA in the presence of chemical substance/The level of expressed mRNA in the absence of chemical substance (yeast gene YGL181W): 1.0
The level of expressed mRNA in the presence of chemical substance/The level of expressed mRNA in the absence of chemical substance (yeast gene YGR088W): 1.1
The level of expressed mRNA in the presence of chemical substance/The level of expressed mRNA in the absence of chemical substance (yeast gene YHL028W): 1.5
The level of expressed mRNA in the presence of chemical substance/The level of expressed mRNA in the absence of chemical substance (yeast gene YHL046C): 1.1
The level of expressed mRNA in the presence of chemical substance/The level of expressed mRNA in the absence of chemical substance (yeast gene YHR030C): 0.7
The level of expressed mRNA in the presence of chemical substance/The level of expressed mRNA in the absence of chemical substance (yeast gene YHR057C): 1.1
The level of expressed mRNA in the presence of chemical substance/The level of expressed mRNA in the absence of chemical substance (yeast gene YHR104W): 1.0
The level of expressed mRNA in the presence of chemical substance/The level of expressed mRNA in the absence of chemical substance (yeast gene YIL011W): 0.6
The level of expressed mRNA in the presence of chemical substance/The level of expressed mRNA in the absence of chemical substance (yeast gene YIL033C): 1.1
The level of expressed mRNA in the presence of chemical substance/The level of expressed mRNA in the absence of chemical substance (yeast gene YIR037W): 1.3
The level of expressed mRNA in the presence of chemical substance/The level of expressed mRNA in the absence of chemical substance (yeast gene YIR038C): 1.1
The level of expressed mRNA in the presence of chemical substance/The level of expressed mRNA in the absence of chemical substance (yeast gene YJL128C): 1.0
The level of expressed mRNA in the presence of chemical substance/The level of expressed mRNA in the absence of chemical substance (yeast gene YJL158C): 1.1
The level of expressed mRNA in the presence of chemical substance/The level of expressed mRNA in the absence of chemical substance (yeast gene YJL159W): 1.0
The level of expressed mRNA in the presence of chemical substance/The level of expressed mRNA in the absence of chemical substance (yeast gene YJL165C): 0.9
The level of expressed mRNA in the presence of chemical substance/The level of expressed mRNA in the absence of chemical substance (yeast gene YJR045C): 1.0
The level of expressed mRNA in the presence of chemical substance/The level of expressed mRNA in the absence of chemical substance (yeast gene YJR090C): 0.8
The level of expressed mRNA in the presence of chemical substance/The level of expressed mRNA in the absence of chemical substance (yeast gene YKL161C): 0.9
The level of expressed mRNA in the presence of chemical substance/The level of expressed mRNA in the absence of chemical substance (yeast gene YKL163W): 0.9
The level of expressed mRNA in the presence of chemical substance/The level of expressed mRNA in the absence of chemical substance (yeast gene YKL164C): 0.8
The level of expressed mRNA in the presence of chemical substance/The level of expressed mRNA in the absence of chemical substance (yeast gene YKL210W): 1.3
The level of expressed mRNA in the presence of chemical substance/The level of expressed mRNA in the absence of chemical substance (yeast gene YKR053C): 0.7
The level of expressed mRNA in the presence of chemical substance/The level of expressed mRNA in the absence of chemical substance (yeast gene YLL024C): 1.0
The level of expressed mRNA in the presence of chemical substance/The level of expressed mRNA in the absence of chemical substance (yeast gene YLL026W): 1.9
The level of expressed mRNA in the presence of chemical substance/The level of expressed mRNA in the absence of chemical substance (yeast gene YLL039C): 1.0
The level of expressed mRNA in the presence of chemical substance/The level of expressed mRNA in the absence of chemical substance (yeast gene YLL060C): 1.1
The level of expressed mRNA in the presence of chemical substance/The level of expressed mRNA in the absence of chemical substance (yeast gene YLR006C): 0.7
The level of expressed mRNA in the presence of chemical substance/The level of expressed mRNA in the absence of chemical substance (yeast gene YLR109W): 1.6
The level of expressed mRNA in the presence of chemical substance/The level of expressed mRNA in the absence of chemical substance (yeast gene YLR259C): 0.7
The level of expressed mRNA in the presence of chemical substance/The level of expressed mRNA in the absence of chemical substance (yeast gene YML007W): 1.1
The level of expressed mRNA in the presence of chemical substance/The level of expressed mRNA in the absence of chemical substance (yeast gene YML070W): 1.3
The level of expressed mRNA in the presence of chemical substance/The level of expressed mRNA in the absence of chemical substance (yeast gene YMR021C): 0.8
The level of expressed mRNA in the presence of chemical substance/The level of expressed mRNA in the absence of chemical substance (yeast gene YMR173W): 1.4
The level of expressed mRNA in the presence of chemical substance/The level of expressed mRNA in the absence of chemical substance (yeast gene YMR186W): 1.0
The level of expressed mRNA in the presence of chemical substance/The level of expressed mRNA in the absence of chemical substance (yeast gene YNL064C): 0.8
The level of expressed mRNA in the presence of chemical substance/The level of expressed mRNA in the absence of chemical substance (yeast gene YNL160W): 1.4
The level of expressed mRNA in the presence of chemical substance/The level of expressed mRNA in the absence of chemical substance (yeast gene YNL241C): 2.0
The level of expressed mRNA in the presence of chemical substance/The level of expressed mRNA in the absence of chemical substance (yeast gene YNR076W): 0.7
The level of expressed mRNA in the presence of chemical substance/The level of expressed mRNA in the absence of chemical substance (yeast gene YOL064C): 0.9
The level of expressed mRNA in the presence of chemical substance/The level of expressed mRNA in the absence of chemical substance (yeast gene YOL161C): 1.3
The level of expressed mRNA in the presence of chemical substance/The level of expressed mRNA in the absence of chemical substance (yeast gene YOR008C): 0.7
The level of expressed mRNA in the presence of chemical substance/The level of expressed mRNA in the absence of chemical substance (yeast gene YOR009W): 0.4
The level of expressed mRNA in the presence of chemical substance/The level of expressed mRNA in the absence of chemical substance (yeast gene YOR010C): 0.5
The level of expressed mRNA in the presence of chemical substance/The level of expressed mRNA in the absence of chemical substance (yeast gene YOR027W): 1.3
The level of expressed mRNA in the presence of chemical substance/The level of expressed mRNA in the absence of chemical substance (yeast gene YOR208W): 1.2
The level of expressed mRNA in the presence of chemical substance/The level of expressed mRNA in the absence of chemical substance (yeast gene YPL059W): 0.8
The level of expressed mRNA in the presence of chemical substance/The level of expressed mRNA in the absence of chemical substance (yeast gene YPL106C): 1.1
The level of expressed mRNA in the presence of chemical substance/The level of expressed mRNA in the absence of chemical substance (yeast gene YPL140C): 0.8
The level of expressed mRNA in the presence of chemical substance/The level of expressed mRNA in the absence of chemical substance (yeast gene YPL194W): 0.9
The level of expressed mRNA in the presence of chemical substance/The level of expressed mRNA in the absence of chemical substance (yeast gene YPL223C): 0.9
The level of expressed mRNA in the presence of chemical substance/The level of expressed mRNA in the absence of chemical substance (yeast gene YPL240C): 0.8
The level of expressed mRNA in the presence of chemical substance/The level of expressed mRNA in the absence of chemical substance (yeast gene YPR005C): 0.6
The level of expressed mRNA in the presence of chemical substance/The level of expressed mRNA in the absence of chemical substance (yeast gene YPR026W): 1.2
